Patent publication US20240425523A1, “Compounds for the Degradation of EGFR Kinase” (Beigene Switzerland GMBH, priority 2023, published 2024)

Assays:
Assay type in all cases: cell-based
[1] = target: T1, p-EGFR L858R (BaF3-L858R cells) (Homo sapiens, UniProt P00533, L858R); experiment: Cell p-EGFR inhibition assay, HTRF, BaF3-L858R cells; conditions: 16 h treatment; for Imax (%): maximum percentage of pEGFR inhibition; for IC50: pEGFR inhibition
T1 construct: host or cells: BaF3
Protocol: (§1) BaF3-L858R (abbv. L858R) cell were purchased from Kangyuan Bochuang Biotechnology (Beijing) Co., Ltd.
(§2) H1975-#23 and BaF3-L858R cells are treated with compounds diluted in 0.1% DMSO cell culture medium on day 2, incubate for 16 h, 37° C., 5% CO2. the final concentration of compounds in all assay is start with 10 uM, 5-fold dilution, total 8 doses were included.
(§3) After 16 h treatment, for H1975-#23 cells, add 50 ul HTRF 1× lysis buffer to each well; for BaF3-L858R cells, add 20 μl 4× lysis buffer to each well; seal the plate and incubate 1 hour at room temperature on a plate shaker; Once the cells are lysed, 16 μL of cell lysate are transferred to a PE 384-well HTRF detection plate; 4 μL of pre-mixed HTRF antibodies are added to each well; Cover the plate with a plate sealer, spin 1000 rpm for 1 min, Incubate overnight at room temperature; Read on BMG PheraStar with HTRF protocol (337 nm-665 nm-620 nm).
(§4) High control=Cell group with added DMSO and without compound, indicating microplate readings without p-EGFR inhibited.
(§5) Imax is the maximum percentage of inhibition.
(§6) The IC50 value of a compound can be obtained by fitting the following equation.
(§7) Wherein, X and Y are known values, and IC50, Hillslope, Top and Bottom are the parameters obtained by fitting with software. […] The experimental data were fitted by calculating and analyzing with Dotmatics data analysis software.

[2] = target: p-EGFR Del19/C797S (H1975-clone #23 cells) (Homo sapiens, UniProt P00533); experiment: Cell p-EGFR inhibition assay, HTRF, H1975-clone#23 (DEL19/C797S) cells; conditions: 16 h treatment; for Imax (%): maximum percentage of pEGFR inhibition; for IC50: pEGFR inhibition
Protocol: (§8) The EGFR over-expressed cells then underwent knockout, in which the EGFR targeting sgRNA was designed to only target the endogenous EGFR copies and preserve the exogenous EGFR copies. Followed by the knockout, the edited H1975 cells were seeded in 96 well plates at the concentration of 1 cell/well, cultured for about 2 weeks to allow single clones formation. The formed clones were screened by DNA sequencing and whole exon sequencing analysis for the desired edition.
as §2, §3, §4, §5, §6, §7

[3] = target: T2, EGFR-L858R/C797S (H1975-clone #8 cells) (Homo sapiens, UniProt P00533, C797S/L858R); experiment: Cell degradation of EGFR, HTRF assay, H1975-clone#8 (L858R/C797S) cells; conditions: 16 h treatment; for DC50: EGFR degradation; for Dmax: maximum percentage of degradation
T2 construct: expressed in transfected cells; host or cells: H1975 (endogenous EGFR knocked out, clone #8)
Protocol: as §8, with “[…],” for “cell/well,”
(§9) H1975-#8 and BaF3-L858R cells are treated with compounds diluted in 0.1% DMSO cell culture medium on day 2, incubate for 16 h, 37° C., 5% CO2. the final concentration of compounds in all assay is start with 10 uM, 5-fold dilution, total 8 doses were included.
as §3, with “H1975-#8” for “H1975-#23”, “100” for “50”
(§10) High control=Cell group with added DMSO and without compound, indicating microplate readings without EGFR degradation;
(§11) Dmax is the maximum percentage of inhibition (degradation).
(§12) The IC50 (DC50) value of a compound can be obtained by fitting the following equation
(§13) Y=Bottom+(TOP−Bottom)/(1+((IC50/X)^hillslope))
as §7

[4] = target: T3, EGFR L858R (BaF3-L858R cells) (Homo sapiens, UniProt P00533, L858R); experiment: Cell degradation of EGFR, HTRF assay, BaF3-L858R cells; conditions: 16 h treatment; for DC50: EGFR degradation; for Dmax: maximum percentage of degradation
T3 construct: host or cells: BaF3
Protocol: as §1, §9
as §3, with “H1975-#8” for “H1975-#23”, “100” for “50”
as §10, §11, §12, §13, §7

Compound | Imax (%) [1] [%] | IC50 [1] [nM] | Imax (%) [2] [%] | IC50 [2] [nM] | DC50 [3] [nM] | Dmax [3] [%] | DC50 [4] [nM] | Dmax [4] [%]
Cc1cc2cc(n1)-c1cnn(C)c1OC[C@H]1CCC(C1)CN1/C(=N/C2=O)Nc2ccc(N3CCN(C4CCN(c5ccc(NC6CCC(=O)NC6=O)cc5Cl)CC4)CC3)cc21 (stereo partly shown) [Example 103, 3-((3-chloro-4-(4-(4-((7^1R,7^3S,E)-1^1,2^6-dimethyl-3-oxo-5^2,5^3-dihydro-1^1H,5^1H-9-oxa-4-aza-5(2,1)-benzo[d]imidazola-2(2,4)-pyridina-1(4,5)-pyrazola-7(1,3)-cyclopentanacyclononaphane-5^6-yl)piperazin-1-yl)piperidin-1-yl)phenyl)amino)piperidine-2,6-dione] | 95.6 | 16.3 | 102 | 0.8 | 2.53 | 83.3 | 3.38 | 81.6
Cc1cc2cc(n1)-c1cnn(C)c1OC[C@H]1CCC(C1)CN1/C(=N/C2=O)Nc2ccc(N3CCN([C@H]4CCN(c5ccc(C6CCC(=O)NC6=O)nc5C)C[C@@H]4F)CC3)cc21 (stereo partly drawn) [Example 76, 3-(5-((3S,4S)-4-(4-((7^1R,7^3S,E)-1^1,2^6-dimethyl-3-oxo-5^2,5^3-dihydro-1^1H,5^1H-9-oxa-4-aza-5(2,1)-benzo[d]imidazola-2(2,4)-pyridina-1(4,5)-pyrazola-7(1,3)-cyclopentanacyclononaphane-5^6-yl)piperazin-1-yl)-3-fluoropiperidin-1-yl)-6-methylpyridin-2-yl)piperidine-2,6-dione] | 94.9 | 7.8 | 101 | 0.7 | 3.87 | 79.4 | 3.23 | 84.8
Cc1cc2cc(n1)-c1cnn(C)c1OC[C@H]1CCC(C1)CN1/C(=N/C2=O)Nc2ccc(N3CCN(C4CCN(c5c(F)cc(NC6CCC(=O)NC6=O)cc5F)CC4)CC3)cc21 (stereo partly shown) [Example 92, 3-((4-(4-(4-((7^1R,7^3S,E)-1^1,2^6-dimethyl-3-oxo-5^2,5^3-dihydro-1^1H,5^1H-9-oxa-4-aza-5(2,1)-benzo[d]imidazola-2(2,4)-pyridina-1(4,5)-pyrazola-7(1,3)-cyclopentanacyclononaphane-5^6-yl)piperazin-1-yl)piperidin-1-yl)-3,5-difluorophenyl)amino)piperidine-2,6-dione] | 97.2 | 10 | 100.1 | 1 | 3.12 | 79.8 | 1.97 | 85.8
Cc1cc2cc(n1)-c1cnn(C)c1OC[C@H]1CCC(C1)CN1/C(=N/C2=O)Nc2cc(F)c(N3CCN(C4CCN(c5cnc(C6CCC(=O)NC6=O)cc5C)CC4)CC3)cc21 (stereo partly shown) [Example 100, 3-(5-(4-(4-((7^1R,7^3S,E)-5^5-fluoro-1^1,2^6-dimethyl-3-oxo-5^2,5^3-dihydro-1^1H,5^1H-9-oxa-4-aza-5(2,1)-benzo[d]imidazola-2(2,4)-pyridina-1(4,5)-pyrazola-7(1,3)-cyclopentanacyclononaphane-5^6-yl)piperazin-1-yl)piperidin-1-yl)-4-methylpyridin-2-yl)piperidine-2,6-dione] | 107.3 | 6.7 | 101 | 0.5 | 3.07 | 87.3 | 3.34 | 72.3

Other lines, results leading:

Imax (%) [1] [%] | IC50 [1] [nM] | Imax (%) [2] [%] | IC50 [2] [nM] | DC50 [3] [nM] | Dmax [3] [%] | DC50 [4] [nM] | Dmax [4] [%] | Compound
91.5 | 0.58 | 100.67 | 1.2 | 1.69 | 94.9 | 3.11 | 88.2 | Cc1cc2cc(n1)-c1c(C)nn(C)c1OC[C@H]1CC[C@H](C1)CN1/C(=N/C2=O)Nc2ccc(N3CCN(C4CCN(c5cc(F)c([C@H]6CCC(=O)NC6=O)c(F)c5)CC4)C[C@H]3C)cc21 [Example 190, (R)-3-(2,6-difluoro-4-(4-((R)-3-methyl-4-((7^1R,7^3S,E)-1^1,1^3,2^6-trimethyl-3-oxo-5^2,5^3-dihydro-1^1H,5^1H-9-oxa-4-aza-5(2,1)-benzo[d]imidazola-2(2,4)-pyridina-1(4,5)-pyrazola-7(1,3)-cyclopentanacyclononaphane-5^6-yl)piperazin-1-yl)piperidin-1-yl)phenyl)piperidine-2,6-dione]
89.17 | 1.04 | 99.96 | 1.56 | 3.72 | 86.9 | 0.74 | 90.2 | Cc1cc2cc(n1)-c1c(C)nn(C)c1OC[C@H]1CC[C@H](C1)CN1/C(=N/C2=O)Nc2ccc(N3CCN(CC4CN(c5cc(F)c([C@H]6CCC(=O)NC6=O)c(F)c5)C4)[C@@H](CF)C3)cc21 [Example 210, (R)-3-(2,6-difluoro-4-(3-(((R)-2-(fluoromethyl)-4-((7R,7^3S,E)-1^1,1^3,2^6-trimethyl-3-oxo-5^2,5^3-dihydro-1^1H,5^1H-9-oxa-4-aza-5(2,1)-benzo[d]imidazola-2(2,4)-pyridina-1(4,5)-pyrazola-7(1,3)-cyclopentanacyclononaphane-5^6-yl)piperazin-1-yl)methyl)azetidin-1-yl)phenyl)piperidine-2,6-dione]
104.27 | 7.09 | 102.96 | 1.37 | 1.27 | 83.4 | 3.61 | 85.5 | Cc1cc2cc(n1)-c1c(C)nn(C)c1OC[C@H]1CC[C@H](C1)CN1/C(=N/C2=O)Nc2ccc(N3CCC(CN(C)C4CCN(c5cc(F)c([C@H]6CCC(=O)NC6=O)c(F)c5)CC4)CC3)cc21 [Example 138, (R)-3-(2,6-difluoro-4-(4-(methyl((1-((7^1R,7^3S,E)-1^1,1^3,2^6-trimethyl-3-oxo-5^2′5^3-dihydro-1^1H,5^1H-9-oxa-4-aza-5(2,1)-benzo[d]imidazola-2(2,4)-pyridina-1(4,5)-pyrazola-7(1,3)-cyclopentanacyclononaphane-5^6-yl)piperidin-4-yl)methyl)amino)piperidin-1-yl)phenyl)piperidine-2,6-dione]
100.12 | 8.76 | 102.95 | 2.5 | 2.81 | 91.6 | 2.62 | 86.5 | COC[C@@H]1CN(c2cc3c(cc2F)N/C2=N\C(=O)c4cc(C)nc(c4)-c4c(C)nn(C)c4OC[C@H]4CC[C@H](C4)CN23)CCN1C1CCN(c2cc(F)c([C@H]3CCC(=O)NC3=O)c(F)c2)CC1 [Example 169, (R)-3-(2,6-difluoro-4-(4-((S)-4-((7^1R,7^3S,E)-5^5-fluoro-1^1,1^3,2^6-trimethyl-3-oxo-5^2,5^3-dihydro-1^1H,5^1H-9-oxa-4-aza-5(2,1)-benzo[d]imidazola-2(2,4)-pyridina-1(4,5)-pyrazola-7(1,3)-cyclopentanacyclononaphane-5^6-yl)-2-(methoxymethyl)piperazin-1-yl)piperidin-1-yl)phenyl)piperidine-2,6-dione]
